From patent US20050234122A1, “Prevention of and countermeasures against viral infection” (LIFE SCIENCE INSTITUTE, LTD., priority 2004, published 2005)

Key:
[1] = rats suffering from artificial peritonitis; cited from earlier work
immune function = details: cited from earlier work
[2] = Activity of vitamin C in drip infusion depending on pH; type: physicochemical; details: drip infusion with a pH of 7.0 or greater
[3] = Oxidation of vitamin C dissolved in a juice; type: physicochemical; details: within about 90 minutes
[4] = Viscosity of mucopolysaccharides after adding vitamin C (Oswald viscometer); details: vitamin C added to mucopolysaccharides

activity of vitamin C [2]	vitamin C that becomes an oxidized derivative [3]	SMILES	survivorship [1]	decreased weight of the thymus gland and decreased T-cells' capability of blast transformation (immune function; rat suffering from fracture)	T-cells' capability of blast transformation (immune function; rats)	weight of the thymus gland (immune function; rats)	viscosity of the mixture [4]
		N=C(N)NCCC[C@H](N)C(=O)O [arginine]	remarkably increased survivorship	recovered	increases	increases	
decreases	50%	O=C1O[C@H]([C@@H](O)CO)C(O)=C1O [vitamin C, ascorbic acid]					gradually decreases
